Test results taken from US20230382915A1, “GCN2 AND PERK KINASE INHIBITORS AND METHODS OF USE THEREOF” (Deciphera Pharmaceuticals, LLC, priority 2021, published 2023).
pIC50: −log10 of the molar value.

Experiments:
[1] = test system: ATF4 levels in HT-1080 fibrosarcoma xenograft; assay: HT-1080 fibrosarcoma xenograft PK/PD model; format: in vivo, mice
Protocol: The HT-1080 xenograft model was performed in compliance with all the laws, regulations and guidelines of the National Institutes of Health (NIH) and with the approval of the Animal Care and Use Committee of Labcorp (Ann Arbor, MI), an AAALAC accredited facility. Food and water were provided ad libitum. […] Female nude mice (6-7 weeks old) were inoculated subcutaneously just below the right high axilla with two million cells in Dulbecco's Phosphate Buffered Saline, using a 27-gauge needle and syringe. When tumor burdens reached 150 mm 3 on average on day 6, mice were randomly assigned into groups such that the mean tumor burden for all groups was within 10% of the overall mean tumor burden for the study population. Groups were treated on days 6-11 as follows: vehicle control (dosed orally) (n=9); Compound 2 dosed orally at 10 mg/kg BID (n=9); Compound 2 dosed orally at 5 mg/kg BID; Compound 2 dosed orally at 1 mg/kg BID (n=9) prior to sample harvest at 2, 6 and 10 h post dose on day 11. Blood samples were collected in K2EDTA tubes and processed into plasma, snap frozen in liquid nitrogen then stored at −80° C. Plasma samples were subjected to pharmacokinetic analysis using liquid chromatography coupled with tandem mass spectrometry analysis (Cayman Chemical, Ann Arbor, MI). Tumors were harvested and powdered over liquid nitrogen in covaris bags and stored at −80° C. For tissue sample processing roughly 30 mg of tumor tissue was lysed in MPER lysis buffer (Thermo Fisher Scientific, Waltham, MA) supplemented with 3× Halt protease inhibitor, 3×Halt phosphatase inhibitor, 3× Sigma phosphatase inhibitor cocktail 2 and 3×EDTA on ice then homogenized using Bead Ruptor 96 (Omni, Kennesaw, GA). […] Protein concentrations were determined using BCA protein assay kit (Thermo Fisher Scientific, Waltham, MA). […] Samples were resolved using SDS-PAGE then analyzed using Western blot to quantify ATF4 and beta-Actin (Cell Signaling Technology, Danvers, MA). […] Data was analyzed using GraphPad Prism software (GraphPad, San Diego, CA) to calculate % inhibition.

[2] = test system: ATF4 in thapsigargin stimulated CCRF-CEM cells (PERK); assay: CCRF-CEM thapsigargin (TG) ATF4 ELISA; format: cell-based; details: Homo sapiens, 1 μM thapsigargin
Protocol: CCRF-CEM leukemia cells (catalog #CCL-116) were obtained from the American Type Culture Collection (ATTC, Manassas, VA). Briefly, cells were grown in RPMI-1640 medium supplemented with 10% heat-inactivated fetal bovine serum (Invitrogen, Carlsbad, CA) and 1% Penicillin/Streptomycin/L-Glutamine at 37° C., 5% CO2, and 95% humidity. Cells were expanded until reaching one million cells per mL at which time they were subcultured or harvested for assay use. One million five hundred thousand cells per well in 1 mL complete growth medium were dispensed into 12-well plates and incubated overnight. A serial dilution of test compound was added and cells were incubated at 37° C., 5% CO2, and 95% for three hours, then 1 μM thapsigargin was added and cells were incubated for an additional hour at 37° C., 5% CO2, and 95%. Cells were lysed then ATF4 levels were measured using an ELISA assay (Proteintech, Rosemont, IL). Absorbance was measured at 450 nm and 544 nM using a Synergy2 or equivalent reader (Biotek, Winooski VT). Data was analyzed using PRISM software (Graphpad, San Diego, CA) to calculate IC50 values.

[3] = test system: ATF4 in H929 multiple myeloma cells; assay: H929 ATF4 ELISA assay; format: cell-based
Protocol: H929 multiple myeloma cells (catalog #CRL-9068) were obtained from the American Type Culture Collection (ATTC, Manassas, VA). Briefly, cells were grown in RPMI-1640 medium supplemented with 20% heat-inactivated fetal bovine serum (catalog #A3840002, ThermoFisher Scientific, Waltham, MA), 1% Penicillin/Streptomycin/L-Glutamine (catalog #10378016, ThermoFisher Scientific, Waltham, MA), and 0.05 mM 2-mercaptoethanol (catalog #21985-023, ThermoFisher Scientific, Waltham, MA) at 37° C., 5% CO2, and 95% humidity. Cells were expanded until reaching one million five hundred thousand cells per mL at which time they were sub-cultured or harvested for assay use. One million five hundred thousand cells per well in 1 mL complete growth medium were dispensed into 12-well plates and incubated overnight. A serial dilution of test compound was added, and cells were incubated at 37° C., 5% CO2, and 95% for four hours. Cells were lysed then ATF4 levels were measured using an ELISA assay (Proteintech, Rosemont, IL). Absorbance is measured at 450 nm and 544 nM using a Synergy2 or equivalent reader (Biotek, Winooski VT). Data were analyzed using PRISM software (Graphpad, San Diego, CA) to calculate fold stimulation of cellular ATF4 relative to vehicle treated control.

[4] = test system: H2030 solid tumor spheroids; assay: Spheroid proliferation assay, H2030; format: cell-based; details: for spheroid growth, combination treatment: 96 h
Protocol: Non Small Cell Lung Cancer (NSCLC) cell lines H358 (catalog #CRL-5807) and H2030 (catalog #CRL-5914), and fibrosarcoma line HT-1080 (catalog […]) were obtained from the American Type Culture Collect (ATTC, Manassas, VA). Cells were grown in RPMI-1640 medium supplemented with 10% heat-inactivated fetal bovine serum and 1% Penicillin/Streptomycin/L-Glutamine (Invitrogen, Carlsbad, CA) at 37° C., 5% CO2, and 95% humidity and maintained at 50-80% confluency until use. 500-1000 cells were plated in 96-well ultra-low attachment plates (Corning, Glendale, AZ) with complete growth media at 80 μL/well and incubated overnight at 37° C., 5% CO2, and 95% humidity to form spheroids. The next day, serial dilutions of test compounds were prepared in complete growth media and 20 μL/well media containing compound titers was added to spheroids in triplicate. […] At the end of the incubation, spheroids were lysed with 100 μL/well CellTiter-Glo 3D Viability Assay (Promega, Madison, WI) and luminescence was detected using Synergy2 or equivalent reader (Biotek, Winooski, VT). Data was analyzed using GraphPad Prism software (GraphPad, San Diego, CA) to calculate IC50 values.

In the case of `Cn1cc(-c2cccc(NS(=O)(=O)c3cc(Cl)cc(CO)c3Cl)c2F)c2c(N)ncnc21` [Example 2, N-(3-(4-amino-7-methyl-7H-pyrrolo[2,3-d]pyrimidin-5-yl)-2-fluorophenyl)-2,5-dichloro-3-(hydroxymethyl)benzenesulfonamide], the “upregulation of ATF4 levels compared to vehicle control” value ([1]; 1 mg/kg BID orally) was 3 fold, the “upregulation of ATF4 levels compared to vehicle control” value ([1]; 5 mg/kg BID orally) was 3.5 fold and the “upregulation of ATF4 levels compared to vehicle control” value ([1]; 10 mg/kg BID orally) was 4.5 fold. The pIC50 [2] was at least 7.00, the “concentration at which maximum ATF4 stimulation occurred” value ([3]; FIG. 1) was “around 41 nM” and the “maximum stimulation in ATF4 signal” value ([3]; FIG. 1) was 13 fold. The “concentrations at which ATF4 expression reverted to basal levels” value ([3]; FIG. 1, inhibitory phase) was at least 370 nM, the “H929 NS ATF4 ELISA (ATF4 stim)” value ([3]; four hours, relative to vehicle treated control) was “+++ (an ATF4 stim greater than 10 fold and less than or equal to 20 fold)” and the “cell regression, single agent” value ([4]; 5 days, FIG. 11A) was 50%. The “spheroid growth, combination treatment” value ([4]; with 3.3 nM sotorasib, FIG. 12A) was “greater spheroid regression compared to either single agent” and the “spheroid growth, combination treatment” value ([4]; with 3.7 nM trametinib, FIG. 12C) was “greater spheroid regression compared to either single agent”.
